Experimental data: patent publication US7612113B2, “Hydroxy tetrahydro-naphthalenylurea derivatives” (Xention Limited, priority 2002, dated 2009)
Where two headings read alike, the source gives them in different places.

Columns and labels:
[1] = biological target: T1, human VR1 (Homo sapiens, UniProt Q8NER1); assay: capsaicin-induced Ca2+ influx in the human VR1-transfected CHO cell line (Assay 1); format: cell-based; details: 10 nM capsaicin, human VR1-CHOluc9aeq cells, read-out: activity class
T1 construct: expressed in transfected cells
T1 sequence (Q8NER1 whole entry): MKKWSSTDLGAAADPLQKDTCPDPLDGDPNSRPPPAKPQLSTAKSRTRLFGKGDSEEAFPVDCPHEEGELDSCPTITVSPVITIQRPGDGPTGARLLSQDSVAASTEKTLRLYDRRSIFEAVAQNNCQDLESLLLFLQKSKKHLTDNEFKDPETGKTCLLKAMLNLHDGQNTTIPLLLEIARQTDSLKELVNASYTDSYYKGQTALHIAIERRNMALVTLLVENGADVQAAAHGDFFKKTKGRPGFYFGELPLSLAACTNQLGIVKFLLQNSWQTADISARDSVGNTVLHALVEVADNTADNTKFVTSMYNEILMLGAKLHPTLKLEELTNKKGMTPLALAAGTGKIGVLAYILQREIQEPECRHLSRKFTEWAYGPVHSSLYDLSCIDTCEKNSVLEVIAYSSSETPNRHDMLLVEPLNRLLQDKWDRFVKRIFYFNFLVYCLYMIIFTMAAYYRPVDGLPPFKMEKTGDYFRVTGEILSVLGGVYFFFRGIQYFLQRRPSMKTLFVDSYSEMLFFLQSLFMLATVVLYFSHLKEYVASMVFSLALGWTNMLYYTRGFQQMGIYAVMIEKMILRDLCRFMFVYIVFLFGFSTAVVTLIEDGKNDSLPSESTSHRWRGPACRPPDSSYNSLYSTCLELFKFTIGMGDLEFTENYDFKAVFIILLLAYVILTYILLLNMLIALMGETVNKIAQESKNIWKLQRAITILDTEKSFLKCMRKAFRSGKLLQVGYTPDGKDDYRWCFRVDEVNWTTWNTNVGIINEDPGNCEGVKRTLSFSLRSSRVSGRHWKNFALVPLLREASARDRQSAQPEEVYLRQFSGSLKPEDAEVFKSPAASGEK
From the text: [Measurement of capsaicin-induced Ca^2+ influx in the human VR1-transfected CHO cell line] (Assay 1)
• (1) Establishment of the Human VR1-CHOluc9aeq Cell Line • Human vanilloid receptor (hVR1) cDNA was cloned from libraries of axotomized dorsal root ganglia (WO 00/29577). The cloned hVR1 cDNA was constructed with pcDNA3 vector and transfected into a CHOluc9aeq cell line. The cell line contains aequorin and CRE-luciferase reporter genes as read-out signals. The transfectants were cloned by limiting dilution in selection medium (DMEM/F12 medium (Gibco BRL) supplemented with 10% FCS, 1.4 mM Sodium pyruvate, 20 mM HEPES, 0.15% Sodium bicarbonate, 100 U/ml penicillin, 100 μg/ml streptomycin, 2 mM glutamine, non-essential amino acids and 2 mg/ml G418). Ca^2+ influx was examined in the capsaicin-stimulated clones. A high responder clone was selected and used for further experiments in the project. The human VR1-CHOluc9aeq cells were maintained in the selection medium and passaged every 3-4 days at 1-2.5×10^5 cells/flask ([…]). • (2) Measurement of Ca^2+ Influx Using FDSS-3000 • Human VR1-CHOluc9aeq cells were suspended in a culture medium which is the same as the selection medium except for G418 and seeded at a density of 1,000 cells per well into 384-well plates (black walled clear-base/Nalge Nunc International). Following the culture for 48 hrs the medium was changed to 2 μM Fluo-3 AM (Molecular Probes) and 0.02% Puronic F-127 in assay buffer (Hank's balanced salt solution (HBSS), 17 mM HEPES (pH7.4), 1 mM Probenecid, 0.1% BSA) and the cells were incubated for 60 min at. 25° C. After washing twice with assay buffer the cells were incubated with a test compound or vehicle for 20 min at 25° C. Mobilization of cytoplasmic Ca^2+ was measured by FDSS-3000 (λex=488 nm, λem=540 nm/Hamamatsu Photonics) for 60 sec after the stimulation with 10 nM capsaicin. Integral R was calculated and compared with controls. [Measurement of the Capsaicin-Induced Ca^2+ Influx in Primary Cultured Rat Dorsal Root Ganglia Neurons] (Assay 2) • (1) Preparation of Rat Dorsal Root Ganglia Neurons • New born Wister rats (5-11 days) were sacrificed and dorsal root ganglia (DRG) was removed. DRG was incubated with 0.1% trypsin (Gibco BRL) in PBS(−) (Gibco BRL) for 30 min at 37° C., then a half volume of fetal calf serum (FCS) was added and the cells were spun down. The DRG neuron cells were resuspended in Ham F12/5% FCS/5% horse serum (Gibco BRL) and dispersed by repeated pipetting and passing through 70 μm mesh Falcon). The culture plate was incubated for 3 hours at 37° C. to remove contaminating Schwann cells. Non-adherent cells were recovered and further cultured in laminin-coated 384 well plates (Nunc) at 1×10^4 cells/50 μl/well for 2 days in the presence of 50 ng/ml recombinant rat NGF (Sigma) and 50 μM 5-fluorodeoxyuridine (Sigma). • (2) Ca^2+ Mobilization Assay • DRG neuron cells were washed twice with HBSS supplemented with 17 mM HEPES (pH 7.4) and 0.1% BSA. After incubating with 2 μM fluo-3AM (Molecular Probe), 0.02% PF127 (Gibco BRL) and 1 mM probenecid (Sigma) for 40 min at 37° C., cells were washed 3 times. The cells were incubated with VR1 antagonists or vehicle (dimethylsulphoxide) and then with 1 μM capsaicin in FDSS-6000 (λex=480 nm, λem=520 nm/Hamamatsu Photonics). The fluorescence changes at 480 nm were monitored for 2.5 min. Integral R was calculated and compared with controls. [Organ Bath Assay to Measure the Capsaicin-Induced Bladder Contraction] (Assay 3)
The data corresponds to the compounds as yielded by solid phase synthesis and thus to levels of purity of about 40 to 90%. For practical reasons, the compounds are grouped in four classes of activity as follows: IC50=A(<or=)0.1 μM<B(<or=)0.5 μM<C(<or=)1 μM<D

SMILES	IC50 ([1]; Table 1) [nM]	melting point [°C]	IC50 ([1]; Table 3) [nM]
COc1ccc(NC(=O)Nc2cccc3c2CC(O)CC3)cc1 (stereo not shown) [Example 2-6]	> 1000	213 to 215	
CC1(O)CCc2cccc(NC(=O)Nc3ccc(Cl)c(C(F)(F)F)c3)c2C1 (stereo not shown) [Example 2-41]	100 to 500	213	
O=C(NCc1ccccc1)Nc1cccc2c1CC(O)CC2 (stereo not shown) [Example 2-22]	100 to 500	198 to 200	
O=C(Nc1ccccc1Br)Nc1cccc2c1CC(O)CC2 (stereo not shown) [Example 5-4]		196 to 197	100 to 500
O=C(NCc1ccccc1Cl)Nc1cccc2c1CC(O)CC2 (stereo not shown) [Example 2-30]	100 to 500	213 to 215	
Cc1ccccc1NC(=O)Nc1cccc2c1CC(O)CC2 (stereo not shown) [Example 5-6]		223	500 to 1000
O=C(NCc1cccc(F)c1)Nc1cccc2c1CC(O)CC2 (stereo not shown) [Example 2-28]	100 to 500	193 to 194	
O=C(Nc1ccccc1)Nc1cccc2c1CC(O)CC2 (stereo not shown) [Example 2-34]	500 to 1000	198 to 199	
Cc1cccc(NC(=O)Nc2cccc3c2CC(O)CC3)c1 (stereo not shown) [Example 2-18]	100 to 500	198 to 200	
CCOC(=O)c1ccccc1NC(=O)Nc1cccc2c1CC(O)CC2 (stereo not shown) [Example 2-10]	> 1000	178 to 180	
CN(C(=O)Nc1ccc(Cl)c(C(F)(F)F)c1)c1cccc2c1CC(O)CC2 (stereo not shown) [Example 2-40]	100 to 500	136 to 137	
O=C(Nc1ccccc1Cl)Nc1cccc2c1CC(O)CC2 (stereo not shown) [Example 2-2]	100 to 500	197 to 199	
O=C(NCCc1ccccc1)Nc1cccc2c1CC(O)CC2 (stereo not shown) [Example 2-32]	500 to 1000	161 to 163	
Cc1ccccc1CNC(=O)Nc1cccc2c1CC(O)CC2 (stereo not shown) [Example 2-23]	100 to 500	224 to 226	
O=C(Nc1cccc(OC(F)(F)F)c1)Nc1cccc2c1CC(O)CC2 (stereo not shown) [Example 5-11]		203 to 204	< 100
CCOC(=O)c1cccc(NC(=O)Nc2cccc3c2CC(O)CC3)c1 (stereo not shown) [Example 2-11]	< 100	176 to 178	
COc1cccc(NC(=O)Nc2cccc3c2CC(O)CC3)c1 (stereo not shown) [Example 2-5]	100 to 500	187 to 189	
O=C(Nc1cccc(F)c1)Nc1cccc2c1CC(O)CC2 (stereo not shown) [Example 5-3]		204 to 205	100 to 500
CC(C)c1ccc(NC(=O)Nc2cccc3c2CC(O)CC3)cc1 (stereo not shown) [Example 2-19]	< 100	186 to 188	

More lines, now with the values ahead:

IC50 ([1]; Table 1) [nM]	melting point [°C]	IC50 ([1]; Table 3) [nM]	SMILES
< 100	230 to 232		Cc1ccc(CNC(=O)Nc2cccc3c2CC(O)CC3)cc1 (stereo not shown) [Example 2-26]
< 100	250 to 252		O=C(Nc1cccc2c1CC(O)CC2)Nc1cccc2ccccc12 (stereo not shown) [Example 2-13]
< 100	188 to 190		O=C(Nc1ccc(Oc2ccccc2)cc1)Nc1cccc2c1CC(O)CC2 (stereo not shown) [Example 2-20]
< 100	237 to 239		O=C(Nc1ccc(Br)cc1)Nc1cccc2c1CC(O)CC2 (stereo not shown) [Example 2-16]
< 100	212 to 214		O=C(Nc1ccc2ccccc2c1)Nc1cccc2c1CC(O)CC2 (stereo not shown) [Example 2-14]
< 100	234 to 235		O=C(Nc1ccc(Cl)c(Cl)c1)Nc1cccc2c1CC(O)CC2 (stereo not shown) [Example 2-17]
< 100	227 to 228		O=C(Nc1cccc(C(F)(F)F)c1)Nc1cccc2c1CC(O)CC2 (stereo not shown) [Example 2-8]
< 100	216 to 218		O=C(Nc1cccc(Cl)c1)Nc1cccc2c1CC(O)CC2 (stereo not shown) [Example 2-3]
< 100	229 to 231		O=C(Nc1ccc(Cl)cc1)Nc1cccc2c1CC(O)CC2 (stereo not shown) [Example 2-4]
< 100	204 to 206		CCOC(=O)c1ccc(NC(=O)Nc2cccc3c2CC(O)CC3)cc1 (stereo not shown) [Example 2-12]
